According to patent publication US20230288338A1, “LUMINESCENT SUBSTRATE COMPOUND” (NATIONAL INSTITUTE OF ADVANCED INDUSTRIAL SCIENCE AND …, priority 2020, published 2023):

Key:
Format in all cases: biochemical
[1] = target: T1, human serum albumin (HSA) (Homo sapiens, UniProt P02768); assay: Luminescence intensity measurement with human serum albumin; settings: for HSA Luminescence intensity: total luminescence over 60 seconds, normalized against native coelenterazine in HSA set to 1.0, 10 µM substrate solution, 10 mM PB buffer pH 7.4
T1 construct: human serum-derived lyophilized powder, Fatty acid free, Globulin free, Sigma-Aldrich; purchased Sigma-Aldrich; host or cells: purified from human serum
T1 sequence (P02768 25-609): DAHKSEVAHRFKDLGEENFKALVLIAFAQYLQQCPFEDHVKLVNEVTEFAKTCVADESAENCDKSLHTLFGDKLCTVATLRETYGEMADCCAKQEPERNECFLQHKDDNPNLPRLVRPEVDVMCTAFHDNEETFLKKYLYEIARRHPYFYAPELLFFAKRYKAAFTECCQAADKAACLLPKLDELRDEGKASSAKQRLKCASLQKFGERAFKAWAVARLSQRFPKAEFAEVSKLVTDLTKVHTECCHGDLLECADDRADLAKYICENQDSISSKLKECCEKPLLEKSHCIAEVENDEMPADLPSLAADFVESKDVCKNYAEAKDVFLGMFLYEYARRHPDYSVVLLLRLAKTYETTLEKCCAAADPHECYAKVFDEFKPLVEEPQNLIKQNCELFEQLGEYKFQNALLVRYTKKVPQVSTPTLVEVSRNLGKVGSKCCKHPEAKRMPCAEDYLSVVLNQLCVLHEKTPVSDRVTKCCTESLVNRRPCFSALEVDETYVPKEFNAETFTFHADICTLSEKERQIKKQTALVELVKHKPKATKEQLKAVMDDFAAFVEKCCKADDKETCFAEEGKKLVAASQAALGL
Experimental: (§1) Human serum albumin (human serum-derived lyophilized powder, Fatty acid free, Globulin free, Sigma-Aldrich), other human protein species or bovine serum albumin (bovine serum-derived lyophilized powder, Sigma-Aldrich) was dissolved in PB Buffer (10 mM, pH 7.4) and used directly for luminescence measurement. As luminescent substrates, NCTZ, DeepBlueC™, MCLA™, control compounds 1 to 3, HuLumino12 and HuLumino22 were used. Each luminescent substrate was dissolved in methanol to give a 2 mM solution. This solution was diluted to 10 µM with 10 mM PB buffer (pH 7.4) for use as a substrate solution. To 90 µL of this solution, 10 µL of 10 mM PB buffer (pH 7.4) containing human serum albumin (HSA) or bovine serum albumin (BSA) was added to initiate a luminescent reaction. The luminescence intensity was measured with a Promega GloMax® 20/20 for 60 seconds, and the results were expressed as total luminescence (Total Luminescence/min) and compared (FIG. 1). […]

[2] = target: T2, bovine serum albumin (BSA) (Bos taurus, UniProt P02769); assay: Luminescence intensity measurement with bovine serum albumin; settings: total luminescence over 60 seconds, normalized against native coelenterazine in HSA set to 1.0; 10 µM substrate solution, 10 mM PB buffer pH 7.4
T2 construct: bovine serum-derived lyophilized powder, Sigma-Aldrich; purchased Sigma-Aldrich; host or cells: purified from bovine serum
T2 sequence (P02769 25-607): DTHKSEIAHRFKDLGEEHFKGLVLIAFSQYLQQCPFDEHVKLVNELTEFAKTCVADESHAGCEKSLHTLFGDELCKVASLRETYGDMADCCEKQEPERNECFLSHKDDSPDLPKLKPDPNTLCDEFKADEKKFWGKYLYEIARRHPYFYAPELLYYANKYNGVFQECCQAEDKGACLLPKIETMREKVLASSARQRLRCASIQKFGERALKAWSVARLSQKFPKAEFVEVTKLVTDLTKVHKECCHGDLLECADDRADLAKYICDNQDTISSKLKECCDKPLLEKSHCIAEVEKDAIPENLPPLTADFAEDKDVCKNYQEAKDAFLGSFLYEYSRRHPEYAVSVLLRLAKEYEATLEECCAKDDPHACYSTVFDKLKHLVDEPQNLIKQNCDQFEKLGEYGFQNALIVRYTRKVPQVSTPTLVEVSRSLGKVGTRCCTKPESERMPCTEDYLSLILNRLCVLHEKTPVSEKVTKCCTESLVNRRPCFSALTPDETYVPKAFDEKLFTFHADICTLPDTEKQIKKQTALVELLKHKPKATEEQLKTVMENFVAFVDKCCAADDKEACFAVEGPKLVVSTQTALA
Experimental: as §1

HSA = target: T3, HSA (Homo sapiens, UniProt P02768); assay: Michaelis-Menten constant of luminescent substrate/HSA reaction
T3 construct: human serum-derived lyophilized powder, Fatty acid free, Globulin free, Sigma-Aldrich; purchased Sigma-Aldrich; host or cells: purified from human serum
T3 sequence (P02768 25-609): as the sequence (P02768 25-609) above

[3] = target: T1, human serum albumin (HSA); assay: Signal to noise ratio of luminescence in the presence of HSA (FIG. 3); settings: luminescent reaction with HSA; for S/N ratio: FIG. 3
Description: FIG. 3 is a graph showing the luminescence property (signal to noise ratio, S/N ratio) of compounds according to examples of the present invention and comparative examples in the presence of human serum albumin (HSA).

[4] = test system: various human-derived proteins; assay: Luminescence intensity upon reaction with various human-derived proteins or bovine serum albumin (FIG. 2)
Experimental: FIG. 2 is a graph showing the luminescence intensity of HuLumino12 (a compound according to an example of the present invention) upon reaction with various human-derived proteins or bovine serum albumin.
as §1

[5] = target: T1, human serum albumin (HSA); assay: Luminescence spectrum measurement in the presence of HSA (FIG. 6)
Experimental: FIG. 6 is a graph showing the luminescence wavelength (luminescence spectrum measurement result) of HuLumino12 (a compound according to an example of the present invention) in the presence of human serum albumin (HSA).
The luminescence spectrum was measured with a spectrometer. The peak luminescence wavelength was obtained by being normalized against the peak luminescence intensity which was set to 1.0.

[6] = target: T1, human serum albumin (HSA); assay: HSA concentration-dependent luminescence intensity, detection limit (FIG. 5)
Description: FIG. 5 is a graph showing the luminescence intensity of HuLumino12 (a compound according to an example of the present invention), which is dependent on the concentration of human serum albumin (HSA).

[7] = target: T1, human serum albumin (HSA); assay: Luminescence duration in the presence of HSA (FIG. 4); settings: luminescent reaction with HSA
Description: FIG. 4 is a graph showing the luminescence property (luminescence duration) of HuLumino12 (a compound according to an example of the present invention) in the presence of human serum albumin (HSA).

SMILES | HSA Luminescence intensity [1] | BSA Luminescence intensity [2] | also measured
COc1ccc(-c2cn3c(=O)c(Cc4ccccc4)nc-3c[nH]2)cc1 [Control compound 3, reference compound] | 554 | 34.4 | –
O=c1c(Cc2ccccc2)nc2c[nH]c(-c3ccc(O)cc3)cn1-2 [Control compound 2, reference compound] | 13.7 | 11.2 | –
COc1ccc(-c2cn3c(=O)c(C)nc-3c[nH]2)cc1 [MCLA™, reference compound] | 14.1 | 1.8 | –
O=c1c(Cc2ccccc2)nc2c(Cc3ccccc3)[nH]c(-c3ccccc3)cn1-2 [DeepBlueC™, reference compound] | 22.1 | 7.6 | –
COCCCOc1ccc(-c2cn3c(=O)c(Cc4ccccc4)nc-3c(Cc3ccccc3)[nH]2)cc1 [BBlue2.3, reference compound] | 51.5 | 34.3 | –

Now from value to compound, other results behind:

HSA Luminescence intensity [1] | BSA Luminescence intensity [2] | SMILES | also measured
154 | 19.2 | COc1ccc(/C=C/c2cn3c(=O)c(Cc4ccccc4)nc-3c[nH]2)cc1 [HuLumino30, (E)-2-benzyl-6-(4-methoxystyryl)imidazo[1,2-a]pyrazin-3(7H)-one] | –
1.0 | 3.9 | O=c1c(Cc2ccc(O)cc2)nc2c(Cc3ccccc3)[nH]c(-c3ccc(O)cc3)cn1-2 [NCTZ, reference compound] | Michaelis-Menten constant (HSA): 25.3 µM
206 | 5.2 | O=c1c(Cc2ccccc2)nc2c[nH]c(/C=C/c3ccc(-c4ccccc4)cc3)cn1-2 [HuLumino44, (E)-6-(2-([1,1′-biphenyl]-4-yl)vinyl)-2-benzylimidazo[1,2-a]pyrazin-3(7H)-one] | S/N ratio relative to that of HuLumino12 [3]: approximately 4 fold; S/N ratio [3]: 150
61.3 | 9.8 | O=c1c(Cc2ccccc2)nc2c[nH]c(/C=C/c3ccccc3)cn1-2 [HuLumino45, (E)-2-benzyl-6-styrylimidazo[1,2-a]pyrazin-3(7H)-one] | –
912 | 11.9 | COCCCOc1ccc(-c2cn3c(=O)c(Cc4ccccc4)nc-3c[nH]2)cc1 [HuLumino12, 2-benzyl-6-(4-(3-methoxypropoxy)phenyl)imidazo[1,2-a]pyrazin-3(7H)-one] | luminescence intensity higher than NCTZ/HSA ([1]; with HSA, relative to NCTZ/HSA): 912 fold; specificity of luminescent reaction among various human protein species [4]: specific luminescent reaction when recognized by human serum albumin (HSA); S/N ratio [3]: 37; peak luminescence wavelength [5]: 427 nm; Michaelis-Menten constant (HSA): 4.2 µM; detection limit of HSA detection [6]: 7.4 µg/mL; luminescence duration [7]: 3 h
14.2 | 3.1 | COCCCOc1ccc(-c2cn3c(=O)c(C)nc-3c[nH]2)cc1 [HuLumino22, 6-(4-(3-methoxypropoxy)phenyl)-2-methylimidazo[1,2-a]pyrazin-3(7H)-one] | –
